Source: US20250114466A1, “ANTIFOLATE LINKER-DRUGS AND ANTIBODY-DRUG CONJUGATES” (BYONDIS B.V., priority 2021, published 2025)
pIC50: −log10 of the molar value.

Key:
Type in all cases: cell-based
[1] = system: SW-620 cells; assay: In vitro cell viability assay (CellTiter-Glo, 6 days), SW-620; conditions: Homo sapiens, SW-620, 144 h, free antifolate drug, Table 1a
Procedure: (§1) FaDu, BxPC-3, HeLa, MV4-11, and RAJI cell lines were obtained from Deutsche Sammlung von Mikroorganismen und Zellkulturen ([…], Germany). Jurkat NucLight Red cells were obtained from Essen BioScience Inc. (Ann Arbor, MI, USA). SK-BR-3 and SK-OV-3 cells were cultured in McCoys 5A medium (Lonza; Walkersville, MD, USA) supplemented with 10% v/w Fetal Bovine Serum (FBS), Heat-inactivated (HI) (Gibco-Life Technologies; Carlsbad, CA) and 80 U/mL Pen/Strep (Gibco-Life Technologies), at 37° C. in a humidified incubator under 5% CO2 atmosphere. SW-620 cells were similarly maintained in RPMI 1640 medium (Lonza), containing 10% v/w FBS HI and 80 U/mL Pen/Strep. […]
(§2) After an overnight incubation, 10 serial log 10 dilutions of the free drugs were made in DMSO (Sigma-Aldrich). […] Cell viability was assessed after 6 days using a luminescent assay kit (CellTiter-Glo™ (CTG), Promega Corporation) according to the manufacturer's instructions. Percentage cell survival was calculated by dividing the measured luminescence for each free drug or ADC according to the concentration with the average mean of untreated cells (1% or 0.1% DMSO control (for free drugs) or 100% complete growth medium (for ADCs)) multiplied by 100. […]

[2] = system: SK-BR-3 cells; assay: In vitro cell viability assay (CellTiter-Glo, 6 days), SK-BR-3; conditions: Homo sapiens, SK-BR-3, 144 h, free antifolate drug, Table 1a
Procedure: as §1, §2

[3] = system: A-549 cells; assay: In vitro cell viability assay (CellTiter-Glo, 6 days), A-549; conditions: Homo sapiens, A549, 144 h, free antifolate drug, Table 1a
Procedure: Human tumor cell lines SK-BR-3, SW-620, A-549, BT-474, Jurkat Clone E6-1, AU-565, and SK-OV-3 were obtained from American Type Culture Collection (Rockville, MD, USA). FaDu, BxPC-3, HeLa, MV4-11, and RAJI cell lines were obtained from Deutsche Sammlung von Mikroorganismen und Zellkulturen ([…], Germany). Jurkat NucLight Red cells were obtained from Essen BioScience Inc. (Ann Arbor, MI, USA). […]
Cells in complete growth medium were plated in 96-well plates (90 μL/well) and incubated at 37° C., 5% CO2 at the following cell densities: 6500 SK-BR-3, 4000 SW-620, 2500 A-549, 10000 BT-474, 3000 Jurkat Clone E6-1, 5000 AU-565, 1250 FaDu, 1250 BxPC-3, 1000 HeLa, 7500 MV4-11, 1000 RAJI, 3000 Jurkat NucLight Red, and 4000 SK-OV-3 cells per well. […] Cell viability was assessed after 6 days using a luminescent assay kit (CellTiter-Glo™ (CTG), Promega Corporation) according to the manufacturer's instructions. Percentage cell survival was calculated by dividing the measured luminescence for each free drug or ADC according to the concentration with the average mean of untreated cells (1% or 0.1% DMSO control (for free drugs) or 100% complete growth medium (for ADCs)) multiplied by 100. […]

[4] = system: Human tumor cell lines; assay: In vitro cell viability assays, free antifolate drugs, overall comparison; conditions: for antifolate activity compared with talotrexin: Tables 1a-1d
Procedure: Human tumor cell lines SK-BR-3, SW-620, A-549, BT-474, Jurkat Clone E6-1, AU-565, and SK-OV-3 were obtained from American Type Culture Collection (Rockville, MD, USA). FaDu, BxPC-3, HeLa, MV4-11, and RAJI cell lines were obtained from Deutsche Sammlung von Mikroorganismen und Zellkulturen ([…], Germany). Jurkat NucLight Red cells were obtained from Essen BioScience Inc. (Ann Arbor, MI, USA). SK-BR-3 and SK-OV-3 cells were cultured in McCoys 5A medium (Lonza; Walkersville, MD, USA) supplemented with 10% v/w Fetal Bovine Serum (FBS), Heat-inactivated (HI) (Gibco-Life Technologies; Carlsbad, CA) and 80 U/mL Pen/Strep (Gibco-Life Technologies), at 37° C. in a humidified incubator under 5% CO2 atmosphere. SW-620 cells were similarly maintained in RPMI 1640 medium (Lonza), containing 10% v/w FBS HI and 80 U/mL Pen/Strep. A-549 cells were similarly maintained in F-12K Nutrient Mixture (1×) (Gibco-Life Technologies) media supplemented with 80 U/mL Pen/Strep and 5% v/w FBS, which was Qualified (Q) (Gibco-Life Technologies). BT-474 and AU-565 cells were similarly maintained in RPMI 1640 medium (Lonza), containing 10% v/w FBS, which was Qualified (Q) (Gibco-Life Technologies), and 80 U/mL Pen/Strep. Jurkat Clone E6-1, BxPC-3, HeLa, MV4-11, and RAJI cells were similarly maintained in RPMI 1640 medium (Lonza), containing 10% v/w FBS HI and 80 U/mL Pen/Strep. Jurkat NucLight Red cells were similarly maintained in RPMI 1640 medium (Lonza), containing 10% v/w FBS HI, 80 U/mL Pen/Strep and 0.5 μg/mL Puromycin (Gibco-Life Technologies). FaDu cells were cultured in EMEM medium (Lonza) supplemented with 10% v/w FBS HI (Gibco-Life Technologies), 1× GlutaMAX (Gibco-Life Technologies), and 80 U/mL Pen/Strep (Gibco-Life Technologies), at 37° C. in a humidified incubator under 5% CO2 atmosphere.
Cells in complete growth medium were plated in 96-well plates (90 μL/well) and incubated at 37° C., 5% CO2 at the following cell densities: 6500 SK-BR-3, 4000 SW-620, 2500 A-549, 10000 BT-474, 3000 Jurkat Clone E6-1, 5000 AU-565, 1250 FaDu, 1250 BxPC-3, 1000 HeLa, 7500 MV4-11, 1000 RAJI, 3000 Jurkat NucLight Red, and 4000 SK-OV-3 cells per well. After an overnight incubation, 10 serial log 10 dilutions of the free drugs were made in DMSO (Sigma-Aldrich). These free drug dose-response curves were 10-times further diluted in complete growth medium. For the ADCs according to the invention 10 serial log 10 dilutions were made in complete growth medium. 10 μL of a composition comprising a free drug or an ADC according to the invention was added to the assay plate (final DMSO content for free drugs was 1%). […] Cell viability was assessed after 6 days using a luminescent assay kit (CellTiter-Glo™ (CTG), Promega Corporation) according to the manufacturer's instructions. Percentage cell survival was calculated by dividing the measured luminescence for each free drug or ADC according to the concentration with the average mean of untreated cells (1% or 0.1% DMSO control (for free drugs) or 100% complete growth medium (for ADCs)) multiplied by 100.
Curves were fitted by non-linear regression using the sigmoidal dose-response equation with variable slope (four parameters) using curve-fitting software (GraphPad Prism, version 9.4.0 for Windows, GraphPad, San Diego, CA or Electronic Laboratory Notebook (ELN) add-in BioAssay, version 19.1.0.0218, Perkin Elmer, Waltham, MA). Relative IC50 values were calculated as the concentration that gives a response halfway between bottom and top of the curve, when using a 4-parameter logistic fit. Data were reported as mean IC50 value of at least one experiment performed in duplicate.

| Structure (SMILES) | antifolate activity compared with talotrexin [4] | further results |
| --- | --- | --- |
| Nc1nc(N)c2nc(CNc3ccc(C(=O)N[C@@H](CCCNC(=O)c4ccccc4C(=O)O)C(=O)O)cc3)cnc2n1 [Talotrexin] | – | pIC50 [1]: 8.76; pIC50 [2]: 8.74; pIC50 [3]: 8.77 |
| Nc1ccc(C(=O)NCCC[C@H](NC(=O)c2ccc(CCc3ccc4nc(N)nc(N)c4c3)cc2)C(=O)O)cc1 [XJ4, (S)-5-(4-Aminobenzamido)-2-(4-(2-(2,4-diaminoquinazolin-6-yl)ethyl)benzamido)pentanoic acid] | less active than talotrexin | – |
| Nc1ccc(C(=O)NCCC[C@H](NC(=O)c2ccc(NCc3cnc4nc(N)nc(N)c4n3)cc2)C(=O)O)cc1 [XT35, (S)-5-(4-Aminobenzamido)-2-(4-(((2,4-diaminopteridin-6-yl)methyl)amino)benzamido) pentanoic acid] | less active than talotrexin | – |
| Nc1ccc(C(=O)NCCC[C@H](NC(=O)c2ccc(NCc3ccc4nc(N)nc(N)c4c3Cl)cc2)C(=O)O)c(-c2nnn[nH]2)c1 [XT110, (S)-5-(4-Amino-2-(1H-tetrazol-5-yl)benzamido)-2-(4-(((2,4-diamino-5-chloroquinazolin-6-yl)methyl)amino)benzamido)pentanoic acid] | – | antifolate activity compared with XX35 ([4]; 5-chloroquinazoline-2,4-diamine instead of pteridine-2,4-diamine): strongly increased the antifolate activity |
| [N-]=[N+]=Nc1ccc(C(=O)NCCC[C@H](NC(=O)c2ccc(CCc3cnc4nc(N)nc(N)c4n3)cc2)C(=O)O)cc1 [XX5, (S)-5-(4-Azidobenzamido)-2-(4-(2-(2,4-diaminopteridin-6-yl)ethyl)benzamido) pentanoic acid] | less active than talotrexin | – |
| Nc1ccc(C(=O)NCCC[C@H](NC(=O)c2ccc(CCc3cnc4nc(N)nc(N)c4n3)cc2)C(=O)O)cc1 [XX7, (S)-5-(4-Aminobenzamido)-2-(4-(2-(2,4-diaminopteridin-6-yl)ethyl)benzamido) pentanoic acid] | less active than talotrexin | – |
| CN(Cc1cnc2nc(N)nc(N)c2n1)c1ccc(C(=O)N[C@@H](CCCNC(=O)c2ccc(N)cc2)C(=O)O)cc1 [XX12, (S)-5-(4-aminobenzamido)-2-(4-(((2,4-diaminopteridin-6-yl)methyl)(methyl)amino)benzamido)pentanoic acid] | less active than talotrexin | – |
